These results are taken from ChEMBL document CHEMBL4393691, “Design, synthesis and antitumor evaluation of novel celastrol derivatives” (Eur J Med Chem, 2019).

Active and inactive are the calls of the source. The rule behind the calls is not given here.

The test system of assay [1] is A549. Put plainly: Induction of apoptosis in human A549 cells assessed as increase in Fas expression at 0.5 to 2 uM incubated for 8 hrs by western blot analysis. The assay is classed as functional, cell-based. On the technique in general: A western blot detects proteins with antibodies after separation by electrophoresis.
Assay [2] deals with A549. Nature of the assay: Induction of apoptosis in human A549 cells assessed as necrotic cells at 0.6 uM incubated for 24 hrs by AnnexinV-FITC/propidium iodide staining-based flow cytometric analysis (reference value: 3.6%). Type of assay: functional. Background: Flow cytometry measures light scatter and fluorescence of single cells or particles in a stream.
The test system of assay [3] is A549. Nature of the assay: Induction of apoptosis in human A549 cells assessed as necrotic cells at 1.2 uM incubated for 24 hrs by AnnexinV-FITC/propidium iodide staining-based flow cytometric analysis (reference value: 3.6%). Type of assay: functional.
The subject of assay [4] is A549. Put plainly: Induction of apoptosis in human A549 cells assessed as decrease in Cdk4 expression incubated for 8 hrs by western blot analysis. Type of assay: functional, cell-based.
In assay [5] the test system is A549. Put plainly: Cell cycle arrest in human A549 cells assessed as accumulation at G1 phase at 0.27 uM incubated for 12 hrs by propidium iodide staining based flow cytometry analysis (Rvb=49.49%). Type of assay: functional.
Assay [6] has as its system A549. Put plainly: Induction of apoptosis in human A549 cells assessed as decrease in Bcl-2 expression incubated for 8 hrs by western blot analysis. Type of assay: functional, cell-based.
The test system of assay [7] is A549. Put plainly: Cell cycle arrest in human A549 cells assessed as accumulation at G2 phase at 0.18 uM incubated for 24 hrs by propidium iodide staining based flow cytometry analysis (Rvb=18.01%). The assay is classed as functional.
For assay [8], the system named is A549. Put plainly: Cell cycle arrest in human A549 cells assessed as accumulation at G0/G1 phase by propidium iodide staining based flow cytometric analysis. Type of assay: functional.
Assay [9] relates to A549. Put plainly: Induction of apoptosis in human A549 cells assessed as early apoptotic cells at 0.4 uM incubated for 24 hrs by AnnexinV-FITC/propidium iodide staining-based flow cytometric analysis (reference value: 4.1%). Type of assay: functional.
In assay [10] the test system is A549. Put plainly: Cell cycle arrest in human A549 cells assessed as accumulation at S phase at 0.18 uM incubated for 24 hrs by propidium iodide staining based flow cytometry analysis (Rvb=27.61%). Type of assay: functional.
The test system of assay [11] is A549. Put plainly: Cell cycle arrest in human A549 cells assessed as accumulation at S phase at 0.18 uM incubated for 12 hrs by propidium iodide staining based flow cytometry analysis (Rvb=38.46%). Type of assay: functional.
Assay [12] concerns A549. Put plainly: Cell cycle arrest in human A549 cells assessed as accumulation at G1 phase at 0.06 uM incubated for 24 hrs by propidium iodide staining based flow cytometry analysis (Rvb=55.3%). Type of assay: functional.
Assay [13] relates to A549. Put plainly: Induction of apoptosis in human A549 cells assessed as increase in Fas-L expression at 0.5 to 2 uM incubated for 8 hrs by western blot analysis. The assay is classed as functional, cell-based.
The subject of assay [14] is A549. Put plainly: Induction of apoptosis in human A549 cells assessed as early apoptotic cells at 0.8 uM incubated for 24 hrs by AnnexinV-FITC/propidium iodide staining-based flow cytometric analysis (reference value: 4.1%). Type of assay: functional.
The next assay relates to HepG2. Put plainly: Cytotoxicity against human HepG2 cells assessed as reduction in cell viability incubated for 48 hrs by MTT assay. Type of assay: functional, cell-based. To be noted: HepG2, 48 h. (Tetrazolium assays rely on reduction of a dye to a coloured formazan, in cell work by metabolically active cells.)
The test system of assay [15] is A549. Nature of the assay: Cell cycle arrest in human A549 cells assessed as accumulation at G2 phase at 0.27 uM incubated for 24 hrs by propidium iodide staining based flow cytometry analysis (Rvb=18.01%). The assay is classed as functional.
The test system of assay [16] is A549. Nature of the assay: Cell cycle arrest in human A549 cells assessed as accumulation at G2 phase at 0.27 uM incubated for 12 hrs by propidium iodide staining based flow cytometry analysis (Rvb=11.7%). Type of assay: functional.
Assay [17] has as its system A549. Put plainly: Induction of apoptosis in human A549 cells assessed as necrotic cells at 0.4 uM incubated for 24 hrs by AnnexinV-FITC/propidium iodide staining-based flow cytometric analysis (reference value: 3.6%). The assay is classed as functional.
In assay [18] the test system is A549. Nature of the assay: Induction of apoptosis in human A549 cells assessed as increase in BAX expression incubated for 8 hrs by western blot analysis. Type of assay: functional, cell-based.
Assay [19] concerns A549. Put plainly: Induction of apoptosis in human A549 cells assessed as late apoptotic cells at 1.2 uM incubated for 24 hrs by AnnexinV-FITC/propidium iodide staining-based flow cytometric analysis (reference value: 4.2%). Type of assay: functional.
The test system of assay [20] is A549. Nature of the assay: Cell cycle arrest in human A549 cells assessed as accumulation at S phase at 0.27 uM incubated for 24 hrs by propidium iodide staining based flow cytometry analysis (Rvb=27.61%). Type of assay: functional.

For `COC(=O)/C=C\c1ccc(OC)c(OCCOC(=O)[C@]2(C)CC[C@]3(C)CC[C@]4(C)C5=CC=C6C(=CC(=O)C(O)=C6C)[C@]5(C)CC[C@@]4(C)[C@@H]3C2)c1`, the Activity result is “Dose-dependent effect” with A549 [1]; 4.5% in the assay on A549 [2]; 11.9% with A549 [3]; “Dose-dependent effect” with A549 [4]; 61% in the assay on A549 [5]; 10.87% in the assay on A549 [7]. Further, the Activity entry was “Dose-dependent effect” in the assay with A549 [8]; 10% in the assay with A549 [9]; 29.7% in the assay on A549 [10]; 34.71% in the assay on A549 [11]; 53.02% with A549 [12]; “Dose-dependent effect” in the assay with A549 [13]. The Activity worked out at 16.1% with A549 [14]; 9.56% in the assay on A549 [15]; 5.52% in the assay on A549 [16]; 3.7% in the assay with A549 [17]; 52.2% with A549 [19]; 23.55% with A549 [20]. For the same compound, the result with A549 [6] and with A549 [18] was Active. For the same compound, the concentration for half-maximal inhibition (IC50) with HepG2 was 260 nM.

By IC50 is commonly meant the point on the concentration scale where inhibition reaches its midpoint.
